{
  "source": "patent US20220000765A1",
  "about": "“METHODS AND COMPOSITION FOR TREATING MICROBIAL INFECTIONS” (UNIVERSITY OF LOUISVILLE RESEARCH FOUNDATION, INC., priority 2018, published 2022)",
  "key": {"HIV-1 [1]": {"test_system": "HIV-1", "conditions": "for interaction with Q-GRFT against HIV-1: in free and encapsulated forms"}, "[2]": {"conditions": "Met78Gln variant versus wild-type GRFT; cited from earlier work"}, "HSV-2 [3]": {"test_system": "HSV-2", "assay": "In vivo efficacy against a lethal dose of HSV-2 infection (GRFT fibers, Example 5)", "set-up": "species or system BALB/c mice", "protocol": "All in vivo experimental procedures were approved by the University of Louisville's Institutional Animal Care and Use Committee (IACUC 17135) prior to testing. All animal studies were conducted using 5-week-old female BALB/c mice (Jackson Laboratory, Bar Harbor, Me.) to evaluate the efficacy and safety of GRFT fibers. For efficacy studies, mice were administered either blank or GRFT fibers (5 mg) that were UV-sterilized for 15 s. Mice were subcutaneously injected with 3 mg Depo-Provera (Revive, Madison, N.J.) to induce the diestrous stage of their cycle, 5 days prior to fiber administration.\nTo determine the efficacy of GRFT fibers against HSV-2 infection, mice were administered a single dose of either GRFT PEO, PVA, or PVP fibers, or control groups (n=20). Twenty-four hours after fiber administration, mice were challenged with HSV-2 (20 μL, LD90 5,000 PFU). Untreated/infected mice were used as positive controls for infection, while untreated/uninfected mice and infected mice treated with free GRFT (20 μL, of 1,000 μg/mL, 20 μg GRFT) served as negative controls. […] Blank PEO fibers were administered as an additional control group in efficacy studies. Mice were monitored daily for 14 days after HSV-2 challenge using an established 4-point scale to monitor the progression of viral infection. Each day, mice were weighed and examined for signs of neurological and epithelial damage. […]"}, "HIV-1 [4]": {"test_system": "HIV-1", "conditions": "NPs or eluates from 20% w/w NP-EF composites", "experimental": "TZM-bl cells, obtained from the National Institutes of Health AIDS Research and Reference Reagent Program (ARRRP), are engineered HeLa cells that express CD4, CCR5 and CXCR4 receptors, and were used to assess in vitro HIV-1 infectivity. TZM-bl cells are highly permissive to infection by most HIV-1 and pseudovirus strains, and contain HIV-activated Tat-driven luciferase, allowing for precise quantification of infection. TZM-bl cells were cultured in Dulbecco's Modified Eagle medium (DMEM) containing 10% fetal bovine serum (FBS), 25 mM HEPES, and 50 μg/mL gentamicin (Thermo Fisher). […]\nHIV inhibition was determined as a function of reduction in luciferase reporter gene expression after a single round of infection with pseudotyped HIV in TZM-bl cells. The optimal virus dilution (1:16) was established to yield ≥96,800 relative luminescence units (RLUs). […]\nAfter 48 hr, 100 μL of culture medium was removed from each well. Luminescence was measured using the Bright-Glo luciferase assay (Promega Corporation, Madison, Wis.) by adding 100 μL Bright-Glo reagent solution to each well for 5 min and recording relative luminescence units (RLUs, Synergy HT reader, BioTek). […]"}, "HSV-2 [5]": {"test_system": "HSV-2", "assay": "In vivo HSV-2 efficacy, murine model of lethal HSV-2 infection (GRFT NPs and NP-EFs, Example 4)", "set-up": "species or system BALB/c mice", "protocol": "All in vivo experiments were approved by the University of Louisville's Institutional Animal Care and Use Committee (IACUC-17135) prior to testing. […] For these studies, mice were subcutaneously injected with 3 mg Depo-Provera (Revive, Madison, N.J.) 5 days prior to vehicle administration to induce the diestrous stage of their cycle. All materials administered to mice were UV-sterilized for 15 s prior to use. […] Untreated/uninfected mice and mice treated with 20 μg free GRFT (20 μL of 1,000 μg/mL) served as negative controls of infection, while untreated/infected mice served as a positive control for infection. Blank mPEG-PLGA nanoparticles were administered as an additional control group in efficacy studies."}, "HSV-2 [6]": {"test_system": "HSV-2", "assay": "In vitro HSV-2 plaque assay in Vero E6 cells (GRFT fibers, Example 5)", "format": "cell-based, HSV-2 (4674)", "conditions": "eluates of 10% w/w GRFT fibers; 1 hr prior to infection", "protocol": "To conduct HSV-2 plaque assays, Vero E6 cells and HSV-2 (4674) were kindly provided by Dr. Kenneth Palmer from the University of Louisville.\nHSV-2 plaque assays were conducted to evaluate the in vitro efficacy of 10% w/w GRFT fibers against HSV-2 infection as previously described. Briefly, Vero E6 cells were seeded at 600,000 cells/well in a 6-well flat bottom plate (50% confluence) and grown for 24 hr to confluence. Prior to cell infection, 10% w/w GRFT fibers (30 mg) were dissolved in 20 mL complete plating media (1% FBS MEM). Once the cells were fully confluent, the growth media was removed and replaced with 2 mL of GRFT fiber eluate dilutions, followed by HSV-2 infection (3,000 PFU per well) 1 hr later. Free GRFT (2,000 μg/mL), corresponding to the concentration necessary to provide complete HSV-2 inhibition, was used as a positive control for inhibition, in addition to untreated/uninfected cells. Untreated/infected cells, were used as a negative control of inhibition.\nSubsequent to HSV-2 infection, plates were incubated for 48 hr at 37° C., all media was removed, and cells were fixed with 1.5 mL methanol for 10 min. […] Finally, plates were washed with Milli-Q water, and plaques were counted after drying. […] Samples were analyzed in triplicate, and GraphPad Prism software was used to determine and compare the IC50 values of GRFT fibers to free GRFT."}, "HIV-1 [7]": {"test_system": "HIV-1", "conditions": "eluates of 1% w/w GRFT fibers", "text": "TZM-bl cells, obtained from the National Institutes of Health (NIH) AIDS Research and Reference Reagent Program (ARRRP), were used to assess in vitro HIV-1 infectivity. TZM-bl cells are engineered HeLa cells that express CD4, CCR5 and CXCR4 receptors and contain a Tat-driven luciferase gene, which is activated by HIV-1 infection and permits sensitive and accurate measurements of infection. TZM-bl cells are highly permissive to infection by most strains of HIV and molecularly cloned Env-pseudotyped viruses. TZM-bl cells were cultured in DMEM containing 10% FBS, 25 mM HEPES, and 50 μg/mL gentamicin. […]\nThe antiviral activity of GRFT fibers against HIV-1 was measured using an in vitro HIV-1 pseudovirus inhibition assay. As previously described, HIV-1 inhibition was determined as a function of reduction in luciferase reporter gene expression after a single round of infection in TZM-bl cells. The optimal virus dilution was established prior to the experiments to yield 100,000 relative luminescence units (RLUs). […]\nAfter 48 hr, 100 μL, culture medium was carefully removed from each well. Luminescence was measured using the Bright-Glo luciferase assay system (Promega Corporation, Madison, Wis.) by adding 100 μL, Bright-Glo reagent solution to each well for 5 min. Plates were read via luminescence by the Synergy HT reader (BioTek). […]"}, "Gardnerella vaginalis": {"test_system": "Gardnerella vaginalis", "assay": "Probiotic - Gv liquid co-culture", "format": "cell-based", "conditions": "Example 2; free probiotic (10e7 or 10e8), prebiotic and Gv; plated after 4 and 24 hours", "protocol": "Bacteria loading, viability, and stability were tested by CFU count, BacLight live/dead assay, and fluorescence microscopy. La viability and stability were evaluated at −20° C., 4° C., and 25° C. by counting colony forming units (CFUs). To determine the ability of probiotic EFs to decrease Gv viability, a La EF-Gv co-culture was assessed.\nBacteria were co-cultured in media using the following experimental design (FIG. 16A). The probiotic (L. acidophilus (La) or L. crispatus (Lcr)), the prebiotic, and the Gv were combined for bacterial cell co-culture experiments. Each tube was serially diluted and plated after 4 (FIG. 16B) and 24 (FIG. 16C) hours growth."}},
  "note": "Like-named read-outs stand apart in the source and are kept apart here.",
  "data": [
    {"molecule": "Cc1cc(C)c(Nc2ccnc(Nc3ccc(C#N)cc3)n2)c(C)c1", "note": "[DAP, Dapivirine]", "values": [
      {"measurement": "interaction with Q-GRFT against HIV-1", "setting": "HIV-1 [1]", "value": "synergistic interactions"}
    ]},
    {"molecule": "free Q-GRFT: oxidation-resistant variant of GRFT in which the Met at position 78 was replaced by a Gln", "values": [
      {"measurement": "fold lowering of IC50 of free Q-GRFT", "setting": "HIV-1 [1]; in combination with the free ARVs (TFV, RAL, DAP)", "value": "up to 6 fold"},
      {"measurement": "susceptibility to oxidation", "setting": "[2]", "value": "no susceptibility to oxidation"}
    ]},
    {"molecule": "C[C@H](Cn1cnc2c(N)ncnc21)OCP(=O)(O)O", "note": "[TFV, Tenofovir]", "values": [
      {"measurement": "interaction with Q-GRFT against HIV-1", "setting": "HIV-1 [1]", "value": "synergistic interactions"}
    ]},
    {"molecule": "Griffithsin [free GRFT]", "values": [
      {"measurement": "progression of infection", "setting": "HSV-2 [3]; mice that exhibited symptoms, relative to untreated/infected mice", "value": "decreased progression of infection"},
      {"measurement": "infected mice whose initial symptoms disappeared near the end of the study", "setting": "HSV-2 [3]; of 20 mice", "value": "1 of 20"},
      {"measurement": "IC50 against HIV-1", "setting": "HIV-1 [4]; administered to TZM-bl cells 1 hr prior to infection", "value": "0.0215 ± 0.0053", "unit": "mg/L"},
      {"measurement": "IC50 against HIV-1", "setting": "HIV-1 [4]; administered to TZM-bl cells 24 hr prior to infection", "value": "0.0208 ± 0.0067", "unit": "mg/L"},
      {"measurement": "survivability", "setting": "HSV-2 [5]; intravaginal, single HSV-2 challenge LD90 5,000 PFU 24 hr later, 14 d post-infection, n=20", "value": 85, "unit": "%"},
      {"measurement": "onset of symptoms and progression of infection", "setting": "HSV-2 [5]; treated mice that became symptomatic, relative to untreated/infected control group", "value": "delayed onset of symptoms and a more gradual progression of infection"},
      {"measurement": "1 Hr HSV-2 IC50", "setting": "HSV-2 [6]", "value": "25.5 ± 0.5", "unit": "mg/L"},
      {"measurement": "1 Hr HIV-1 IC50", "setting": "HIV-1 [7]; 1 hr prior to infection", "value": "0.0241 ± 0.0156", "unit": "mg/L"},
      {"measurement": "24 Hr HIV-1 IC50", "setting": "HIV-1 [7]; 24 hr prior to infection", "value": "0.0228 ± 0.0122", "unit": "mg/L"}
    ]},
    {"molecule": "inulin", "values": [
      {"measurement": "effect on Gv growth in probiotic-prebiotic-Gv co-culture", "setting": "Gardnerella vaginalis", "value": "increase of Gv growth"}
    ]},
    {"molecule": "Cc1nnc(C(=O)NC(C)(C)c2nc(C(=O)NCc3ccc(F)cc3)c(O)c(=O)n2C)o1", "note": "[RAL, Raltegravir]", "values": [
      {"measurement": "interaction with Q-GRFT against HIV-1", "setting": "HIV-1 [1]", "value": "synergistic interactions"}
    ]}
  ]
}
